Assay results: patent US20230024096A1, “BIFUNCTIONAL COMPOUNDS FOR THE TREATMENT OF CANCER” (Hoffmann-La Roche Inc., priority 2019, published 2023)

Target: T1, SMARCA2 (Homo sapiens, UniProt P51531)
T1 construct: endogenous in cells; host or cells: HT1080 (CRISPR HiBiT knock-in clone, generated in house)
Test: SMARCA2 HiBiT degradation assay (cellular)
Format: cell-based
Settings: table head names A549; for DC50: 6 h incubation, HiBiT-tagged SMARCA2, luminescence read-out, read-out: HiBit A549 SMARCA2 IP (nM) 6 h; for Emax: A549, 6 h incubation, Emax = amount of residual protein remaining in the cell following compound treatment

T1 sequence (P51531 whole entry): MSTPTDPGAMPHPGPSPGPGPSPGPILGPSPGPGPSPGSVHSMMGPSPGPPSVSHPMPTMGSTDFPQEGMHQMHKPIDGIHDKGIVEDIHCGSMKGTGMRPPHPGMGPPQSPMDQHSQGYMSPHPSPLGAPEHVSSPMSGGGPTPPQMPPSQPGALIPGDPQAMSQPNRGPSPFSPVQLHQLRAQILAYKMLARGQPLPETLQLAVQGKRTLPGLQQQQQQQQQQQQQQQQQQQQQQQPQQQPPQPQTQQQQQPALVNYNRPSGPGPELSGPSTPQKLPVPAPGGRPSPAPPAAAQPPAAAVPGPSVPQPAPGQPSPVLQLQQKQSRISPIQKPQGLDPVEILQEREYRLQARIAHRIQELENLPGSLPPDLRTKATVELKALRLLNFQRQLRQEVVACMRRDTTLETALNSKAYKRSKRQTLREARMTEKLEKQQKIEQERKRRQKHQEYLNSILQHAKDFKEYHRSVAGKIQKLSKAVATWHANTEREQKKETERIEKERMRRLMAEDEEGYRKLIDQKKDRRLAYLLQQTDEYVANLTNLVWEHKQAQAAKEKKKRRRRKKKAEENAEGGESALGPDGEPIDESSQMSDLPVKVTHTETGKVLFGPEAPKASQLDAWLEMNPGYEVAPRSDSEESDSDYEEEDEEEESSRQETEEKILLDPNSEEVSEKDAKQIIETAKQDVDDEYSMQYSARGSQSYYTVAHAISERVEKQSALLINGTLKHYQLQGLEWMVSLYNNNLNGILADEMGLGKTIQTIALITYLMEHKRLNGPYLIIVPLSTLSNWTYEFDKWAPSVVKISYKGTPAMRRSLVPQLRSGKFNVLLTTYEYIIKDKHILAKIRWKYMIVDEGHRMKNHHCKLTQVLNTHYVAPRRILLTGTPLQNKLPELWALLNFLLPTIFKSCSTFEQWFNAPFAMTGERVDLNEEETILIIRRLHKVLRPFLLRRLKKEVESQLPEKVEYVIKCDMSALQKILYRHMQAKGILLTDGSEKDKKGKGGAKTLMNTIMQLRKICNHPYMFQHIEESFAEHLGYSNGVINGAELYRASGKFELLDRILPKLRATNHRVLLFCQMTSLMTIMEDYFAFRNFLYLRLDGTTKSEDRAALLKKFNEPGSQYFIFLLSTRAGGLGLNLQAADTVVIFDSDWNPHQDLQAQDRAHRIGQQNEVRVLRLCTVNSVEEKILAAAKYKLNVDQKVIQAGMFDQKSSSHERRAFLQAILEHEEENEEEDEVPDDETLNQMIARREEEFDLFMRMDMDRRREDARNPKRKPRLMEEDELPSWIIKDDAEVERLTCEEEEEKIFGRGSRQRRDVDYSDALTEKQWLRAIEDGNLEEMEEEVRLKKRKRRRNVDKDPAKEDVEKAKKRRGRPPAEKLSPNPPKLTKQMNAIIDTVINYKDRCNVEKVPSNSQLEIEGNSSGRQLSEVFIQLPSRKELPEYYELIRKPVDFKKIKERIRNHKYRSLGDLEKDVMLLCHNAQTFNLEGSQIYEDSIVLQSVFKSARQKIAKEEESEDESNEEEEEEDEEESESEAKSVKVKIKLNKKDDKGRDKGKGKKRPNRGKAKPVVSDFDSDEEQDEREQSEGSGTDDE

DC50 [nM]	Emax [%]	Compound
12	16	Nc1nnc(-c2ccccc2O)cc1N1CC(Oc2cccc(CN3CCN(C(=O)CCC4CCN(c5ccc6c(c5)C(=O)N(C5CCC(=O)NC5=O)C6=O)CC4)CC3)c2)C1 (racemic) [Example 154, rac-5-[4-[3-[4-[[3-[1-[3-amino-6-(2-hydroxyphenyl)pyridazin-4-yl]azetidin-3-yl]oxyphenyl]methyl]piperazin-1-yl]-3-oxo-propyl]-1-piperidyl]-2-(2,6-dioxo-3-piperidyl)isoindoline-1,3-dione]
5	26	Nc1nnc(-c2ccccc2O)cc1N1CC(Oc2cccc(CN3CCN(C(=O)C4CCN(c5ccc6c(c5)C(=O)N(C5CCC(=O)NC5=O)C6=O)CC4)CC3)c2)C1 (racemic) [Example 155, rac-5-[4-[4-[[3-[1-[3-amino-6-(2-hydroxyphenyl)pyridazin-4-yl]azetidin-3-yl]oxyphenyl]methyl]piperazine-1-carbonyl]-1-piperidyl]-2-(2,6-dioxo-3-piperidyl)isoindoline-1,3-dione]
3	17	Nc1nnc(-c2ccccc2O)cc1N1CC(Oc2cccc(CN3CCN(C(=O)CN4CCC(c5ccc(NC6CCC(=O)NC6=O)cc5)CC4)CC3)c2)C1 (racemic) [Example 156, rac-3-[4-[1-[2-[4-[[3-[1-[3-amino-6-(2-hydroxyphenyl)pyridazin-4-yl]azetidin-3-yl]oxyphenyl]methyl]piperazin-1-yl]-2-oxo-ethyl]-4-piperidyl]anilino]piperidine-2,6-dione]
107	62	CC(Oc1cccc2c1C(=O)N(C1CCC(=O)NC1=O)C2=O)c1cn(C2CN(C(=O)CCCCN3CCN(c4ccc(N5CCC[C@H](Oc6cc(-c7ccccc7O)nnc6N)C5)cc4)CC3)C2)nn1 (mixture of isomers) [Example 199, 2-(2,6-dioxo-3-piperidyl)-4-[1-[1-[1-[5-[4-[4-[rac-(3S)-3-[3-amino-6-(2-hydroxyphenyl)pyridazin-4-yl]oxy-1-piperidyl]phenyl]piperazin-1-yl]pentanoyl]azetidin-3-yl]triazol-4-yl]ethoxy]isoindoline-1,3-dione]
104	45	CC(Oc1cccc2c1C(=O)N(C1CCC(=O)NC1=O)C2=O)c1cn(CCCN2CCN(C(=O)CCN3CCN(c4ccc(N5CCC[C@H](Oc6cc(-c7ccccc7O)nnc6N)C5)cc4)CC3)CC2)nn1 (mixture of isomers) [Example 200, 2-(2,6-dioxo-3-piperidyl)-4-[1-[1-[3-[4-[3-[4-[4-[rac-(3S)-3-[3-amino-6-(2-hydroxyphenyl)pyridazin-4-yl]oxy-1-piperidyl]phenyl]piperazin-1-yl]propanoyl]piperazin-1-yl]propyl]triazol-4-yl]ethoxy]isoindoline-1,3-dione]
79	37	CC(Nc1cccc2c1C(=O)N(C1CCC(=O)NC1=O)C2=O)c1cn(CCCCCCCCCN2CCN(c3ccc(N4CCC[C@H](Oc5cc(-c6ccccc6O)nnc5N)C4)cc3)CC2)nn1 (mixture of isomers) [Example 201, 2-(2,6-dioxo-3-piperidyl)-4-[1-[1-[9-[4-[4-[rac-(3S)-3-[3-amino-6-(2-hydroxyphenyl)pyridazin-4-yl]oxy-1-piperidyl]phenyl]piperazin-1-yl]nonyl]triazol-4-yl]ethylamino]isoindoline-1,3-dione]
107	44	CC(Oc1cccc2c1C(=O)N(C1CCC(=O)NC1=O)C2=O)c1cn(CCCCCCOCCN2CCN(c3ccc(N4CCC[C@H](Oc5cc(-c6ccccc6O)nnc5N)C4)cc3)CC2)nn1 (mixture of isomers) [Example 202, 2-(2,6-dioxo-3-piperidyl)-4-[1-[1-[6-[2-[4-[4-[rac-(3S)-3-[3-amino-6-(2-hydroxyphenyl)pyridazin-4-yl]oxy-1-piperidyl]phenyl]piperazin-1-yl]ethoxy]hexyl]triazol-4-yl]ethoxy]isoindoline-1,3-dione]
216	28	CCC(Nc1cccc2c1C(=O)N(C1CCC(=O)NC1=O)C2=O)c1cn(CCCCCCCCCN2CCN(c3ccc(N4CCC[C@H](Oc5cc(-c6ccccc6O)nnc5N)C4)cc3)CC2)nn1 (mixture of isomers) [Example 203, 2-(2,6-dioxo-3-piperidyl)-4-[1-[1-[9-[4-[4-[rac-(3S)-3-[3-amino-6-(2-hydroxyphenyl)pyridazin-4-yl]oxy-1-piperidyl]phenyl]piperazin-1-yl]nonyl]triazol-4-yl]propylamino]isoindoline-1,3-dione]
907	39	CC(Oc1cccc2c1C(=O)N(C1CCC(=O)NC1=O)C2=O)c1cn(CCC(=O)N2CCN(CCCN3CCN(c4ccc(N5CCC[C@H](Oc6cc(-c7ccccc7O)nnc6N)C5)cc4)CC3)CC2)nn1 (mixture of isomers) [Example 204, 2-(2,6-dioxo-3-piperidyl)-4-[1-[1-[3-oxo-3-[4-[3-[4-[4-[rac-(3S)-3-[3-amino-6-(2-hydroxyphenyl)pyridazin-4-yl]oxy-1-piperidyl]phenyl]piperazin-1-yl]propyl]piperazin-1-yl]propyl]triazol-4-yl]ethoxy]isoindoline-1,3-dione]
550	53	Nc1nnc(-c2ccccc2O)cc1N1CCC2(CC1)CN(C(=O)CCC1CCN(c3cccc4c3C(=O)N(C3CCC(=O)NC3=O)C4=O)CC1)CCO2 (stereo not drawn) [Example 2, 4-[4-[3-[9-[3-amino-6-(2-hydroxyphenyl)pyridazin-4-yl]-1-oxa-4,9-diazaspiro[5.5]undecan-4-yl]-3-oxo-propyl]-1-piperidyl]-2-(2,6-dioxo-3-piperidyl)isoindoline-1,3-dione]

Compound	DC50 [nM]	Emax [%]
Nc1nnc(-c2ccccc2O)cc1N1CC2CCC(C1)N2c1nccc(OCCN2CCN(CCCOC3CCN(c4ccc5c(c4)C(=O)N(C4CCC(=O)NC4=O)C5=O)CC3)CC2)n1 (racemic) [Example 161, rac-5-[4-[3-[4-[2-[2-[3-[3-Amino-6-(2-hydroxyphenyl)pyridazin-4-yl]-3,8-diazabicyclo[3.2.1]octan-8-yl]pyrimidin-4-yl]oxyethyl]piperazin-1-yl]propoxy]-1-piperidyl]-2-(2,6-dioxo-3-piperidyl)isoindoline-1,3-dione]	33	30
CN(C(=O)C1CCN(Cc2cccc(N3C4CCC3CN(c3cc(-c5ccccc5O)nnc3N)C4)c2)CC1)C1CN(c2ccc3c(c2)C(=O)N(C2CCC(=O)NC2=O)C3=O)C1 (racemic) [Example 170, rac-1-[[3-[3-[3-amino-6-(2-hydroxyphenyl)pyridazin-4-yl]-3,8-diazabicyclo[3.2.1]octan-8-yl]phenyl]methyl]-N-[1-[2-(2,6-dioxo-3-piperidyl)-1,3-dioxo-isoindolin-5-yl]azetidin-3-yl]-N-methyl-piperidine-4-carboxamide]	18	31
Nc1nnc(-c2ccccc2O)cc1N1CC2CCC(C1)N2c1cccc(CN2CCN(C(=O)C3CN(c4ccc5c(c4)C(=O)N(C4CCC(=O)NC4=O)C5=O)C3)CC2)c1 (racemic) [Example 179, rac-5-[3-[4-[[3-[3-[3-amino-6-(2-hydroxyphenyl)pyridazin-4-yl]-3,8-diazabicyclo[3.2.1]octan-8-yl]phenyl]methyl]piperazine-1-carbonyl]azetidin-1-yl]-2-(2,6-dioxo-3-piperidyl)isoindoline-1,3-dione]	100	39
Nc1nnc(-c2ccccc2O)cc1N1CC2CCC(C1)N2c1cc(F)cc(CN2CCN(C(=O)C3CCN(c4ccc5c(c4)C(=O)N(C4CCC(=O)NC4=O)C5=O)CC3)CC2)c1 (racemic) [Example 193, rac-5-[4-[4-[[3-[3-[3-Amino-6-(2-hydroxyphenyl)pyridazin-4-yl]-3,8-diazabicyclo[3.2.1]octan-8-yl]-5-fluoro-phenyl]methyl]piperazine-1-carbonyl]-1-piperidyl]-2-(2,6-dioxo-3-piperidyl)isoindoline-1,3-dione]	51	25
Nc1nnc(-c2ccccc2O)cc1N1CC2CCC(C1)N2c1cccc(CN2CCN(C(=O)CN3CCN(c4ccc(OC5CCC(=O)NC5=O)cc4)CC3)CC2)c1 (racemic) [Example 195, rac-3-[4-[4-[2-[4-[[3-[3-[3-Amino-6-(2-hydroxyphenyl)pyridazin-4-yl]-3,8-diazabicyclo[3.2.1]octan-8-yl]phenyl]methyl]piperazin-1-yl]-2-oxo-ethyl]piperazin-1-yl]phenoxy]piperidine-2,6-dione]	72	60
Nc1nnc(-c2ccccc2O)cc1N1CC2CCC(C1)N2c1cccc(OCCN2CCN(C(=O)N3C[C@@H]4CN(c5ccc6c(c5)C(=O)N(C5CCC(=O)NC5=O)C6=O)C[C@@H]4C3)CC2)c1 (relative stereo) [Example 157, rac-2-(2,6-dioxo-3-piperidyl)-5-[rel-(3aS,6aR)-5-[4-[2-[3-[3-[3-amino-6-(2-hydroxyphenyl)pyridazin-4-yl]-3,8-diazabicyclo[3.2.1]octan-8-yl]phenoxy]ethyl]piperazine-1-carbonyl]-1,3,3a,4,6,6a-hexahydropyrrolo[3,4-c]pyrrol-2-yl]isoindoline-1,3-dione]	108	68
Nc1nnc(-c2ccccc2O)cc1N1CC2CCC(C1)N2c1cccc(CN2CCC(C(=O)N3C[C@@H]4CN(c5ccc6c(c5)C(=O)N(C5CCC(=O)NC5=O)C6=O)C[C@@H]4C3)CC2)c1 (relative stereo) [Example 171, rac-2-(2,6-dioxo-3-piperidyl)-5-[rel-(3aR,6aS)-5-[1-[[3-[3-[3-amino-6-(2-hydroxyphenyl)pyridazin-4-yl]-3,8-diazabicyclo[3.2.1]octan-8-yl]phenyl]methyl]piperidine-4-carbonyl]-1,3,3a,4,6,6a-hexahydropyrrolo[3,4-c]pyrrol-2-yl]isoindoline-1,3-dione]	66	40
Nc1nnc(-c2ccccc2O)cc1N1CC2CCC(C1)N2c1cccc(OCCN2CCN(C(=O)CCCCCCNc3cccc4c3C(=O)N(C3CCC(=O)NC3=O)C4=O)CC2)c1 (stereo not drawn) [Example 1, 4-[[7-[4-[2-[3-[3-[3-amino-6-(2-hydroxyphenyl)pyridazin-4-yl]-3,8-diazabicyclo[3.2.1]octan-8-yl]phenoxy]ethyl]piperazin-1-yl]-7-oxo-heptyl]amino]-2-(2,6-dioxo-3-piperidyl)isoindoline-1,3-dione]	68	55
